Assay [1] concerns C57BL/6 mice. The assay can be described thus: Guiding GFP-labeled mouse MSCs to bone. It counts as in vivo. Conditions: for osteocalcin levels: 0.9 nmol/mouse I.P. one hour after GFP-MSC I.V. On the procedure:
LLP2A-Ale or LLP2A-Ale (1) were dissolved in 0.9% normal saline and injected I.P. to the mice one hour after MSC at a final solution of 0.9 nmol/mouse. Mice were sacrificed either at 3 days or 3 weeks. Osteocalcin, a bone formation marker, was measured at both 3 days and 3 weeks post-treatments. The lumbar vertebral bodies from the 3-day treatment groups were frozen and sectioned with cryostat. The sections were then stained with anti-GFP antibody. The transplanted MSCs were stained in brown.

For assay [2], the system named is 10-week-old ovariectomized (OVX) mice. The assay can be described thus: Ovariectomized (OVX) mouse model. The class given is in vivo. Conditions: for maximum stress: femur three-point bending; for maximum stress / cortical bone thickness: single IV injection of conjugate or four weeks of PTH. The text has this:
FIG. 21 depicts histomorphometric analyses of the 5th lumbar vertebral bodies after LLP2A-Ale treatment of 10-week-old ovariectomized (OVX) mice, showing increases in osteoblast numbers, activities and bone formation rate/bone surface (BFR/BS) post-treatment. Analyses included trabecular bone area (%), osteoblast surface (Ob/BS), mineralizing surface (MS/BS) activities and BFR/BS (P<0.05).
Representative fluorescent images from the trabecular bone at the 5th LVB (Top panel: white arrowheads illustrate osteoblasts; Bottom panel: yellow arrows illustrate double labeled trabecular bone surfaces).
FIG. 23 depicts histomorphometry analyses of the right mid-femurs included bone formation at the endosteal (Ec) or periosteal (Ps.) bone surfaces, and cortical bone thickness of 10-week-old ovariectomized (OVX) mice. […] Three-point bending was performed on left femurs to obtain maximum stress of the femurs.
Short yellow arrows illustrated double labeled endocortical bone surfaces. (a, p<0.05 versus Sham; b, P<0.05 vs. OVX+PBS, c, P<0.05 vs. OVX+LLP2A; d, P<0.05 vs. OVX+Ale. Data are represented as Mean±SD).

Assay [3] addresses integrin α4β1 (Homo sapiens, UniProt P05556+P13612). Conditions: cited from earlier work.
Assay [4] relates to bone marrow cells undergoing osteogenic differentiation. The assay can be described thus: Rainbow bead cell-binding assay. The class given is cell-based, mouse. Particulars: cells cultured in osteogenic medium for 7 days, incubated with rainbow beads. On the procedure:
Mouse MSCs were purchased from Invitrogen (Cat#S1502-100), cultured in osteogenic medium for 7 days and incubated with rainbow beads for one hour. […] Original magnification 10× on the right and 20× on the left of the top panel.
A new color-encoding method that facilitates high-throughput screening of OBOC combinatorial libraries was developed. This method differs from the traditional methods used to monitor integrin expressions in the MSCs, i.e., the use of antibody-based fluorescence-activated cell sorting (FACS) or immunoblotting. In the present method, polymer beads displaying chemical compounds or families of compounds were stained with oil-based organic dyes that are used as coding tags. […] These rainbow beads were prepared in a multiplex manner such that each ligand reacted to one or a series of integrins that were coded one color, See FIG. 7 (Luo, J., et al., J Comb Chem, 2008, 10(4): p. 599-604). This rainbow bead technique was then applied to determine the integrin profile on the cell surfaces.
In FIG. 7, bone marrow cells were cultured in osteogenic medium for 7 days and incubated with rainbow beads. The purple beads that coded with LLP2A, the ligand with high affinity and specificity against α4β1, were covered with layers of cells identified by green arrows. […]

Assay [5] has as its system 129SvJ mice. It counts as in vivo, mouse.
Assay [6] relates to NOD/SCID/MPSVII mice. The assay can be described thus: huMSC transplantation with LLP2A-Ale in immunodeficient mice. Particulars: vertebral body, three weeks after single injection of huMSC with or without compound. The class given is in vivo, mouse. From the text: Human MSCs (huMSCs) were obtained and injected together with LLP2A-Ale to immunodeficient mice, NOD/SCID/mucopolysaccharidosis type VII (MPSVII). This mouse strain lacked the β-glucuronidase (GUSB) enzyme. The donor cells could be easily detected using biochemical detection of β-glucuronidase (See Meyerrose, T. E., et al., Stem Cells, 2007. 25(1): p. 220-7; Meyerrose, T. E., et al., Stem Cells, 2008. 26(7): p. 1713-22). At three-month of age, the mice received a single intravenous (i.v.) injection of either vehicle (100 μl PBS/mouse), huMSCs (5×10^5/100 μl/PBS/mouse), huMSCs+LLP2A (5 nM/mouse) or huMSCs+LLP2A-Ale (500 ng/mouse; total compound weight 3.5 μg, with alendronate concentration of 500 ng/mouse). The alendronate dose we used for the study was approximately one-fifth of the therapeutic dose for the treatment of osteoporosis (See Colon-Emeric, C. S., JAMA, 2006, 296(24): p. 2968-9; Ma, Y. L., et al., Endocrinology, 2003. 144(5): p. 2008-15). […] HuMSC, as shown by GUSB+red stain, were only present at the trabecular bone surface in the LLP2A-Ale-treated group (lower panel). There was no demonstrable GUSB activity in the lung, liver, kidney and LVB that received PBS (top panels) or huMSCs (middle panel). Cancellous bone mass in the vertebral body was—more than 40% higher in the group treated with MSC+LLP2A-Ale (cancellous bone volume, BV/TV 13.9±2.2%) compared to PBS (BV/TV 9.4±1.7%), MSC (BV/TV 10.2±1.9%) or MSC+LLP2A (BV/TV 10.5±0.5%) controls three weeks after a single injection of huMSC and LLP2A-Ale.
In FIG. 8, Three-month-old MSPVII mice received a single intravenous injection of either of PBS, huMSC (5×10^5) or huMSC+LLP2A or LLP2A-Ale. The mice were sacrificed 24 hours later. Following sacrifice, small portions of organ including lumbar vertebral bodies (LVB) were harvested and frozen in Optimal Cutting Temperature embedding media. The sections were stained using naphthol-AS-BI-β-Dglucuronide (GUSB) as a substrate. Representative sections from lung, liver, kidney and lumbar vertebral (LVB) trabecular bone regions were presented. […] Isolated GUSB-positive cells were also observed within bone marrow of the LVB in […] group.
The NOD-SCID MPSVII strain was the result of extensive backcrossing of the mutant GUSB allele from the B6.C-H-2^bm1/ByBirgus^mps/+ mouse onto the NOD/LtSz-scid background. Animals were bred and maintained at the Stem Cell Department of the UC Davis Medical Center under approved animal care protocols. Affected animals were generated by breeding mice heterozygous for the MPSVII mutation. Homozygous GUSB-deficient pups were identified at birth by biochemical analysis of toe tissue.
Serum levels of the amino terminal propeptide of type 1 procollagen (P1NP), osteocalcin and C-terminal telopeptides of type I collagen (CTX-I) were measured using mouse sandwich ELISA kits from Biomedical Technologies (Stroughton, Mass.) or Immunodiagnostic System (Fountain Hills, Ariz.). The manufacturer's protocols were followed and all samples were assayed in duplicate. A standard curve was generated from each kit and the absolute concentrations were extrapolated from the standard curve. The coefficients of variations (CVs) for inter-assay and intra-assay measurements were less than 10% for all assays and are similar to the manufacturer's references (Yao, W., et al., Arthritis Rheum, 2008, 58(6): p. 1674-86; Yao, W., et al., Arthritis Rheum, 2008, 58(11): p. 3485-3497).
After fixation in 4% paraformaldehyde, the right distal femurs, mid-femurs and the 5th lumbar vertebral bodies were dehydrated in graded concentrations of ethanol and xylene and embedded un-decalcified in methyl methacrylate. The frontal sections (8 μm thick) were cut using a vertical bed microtome (Leica/Jung 2265) and affixed to slides coated with a 2% gelatin solution. Unstained 8-μm-thick sections were used for assessing fluorochrome labeling and dynamic changes in bone. […]

Chain of integrin α4β1 (P13612 34-1032): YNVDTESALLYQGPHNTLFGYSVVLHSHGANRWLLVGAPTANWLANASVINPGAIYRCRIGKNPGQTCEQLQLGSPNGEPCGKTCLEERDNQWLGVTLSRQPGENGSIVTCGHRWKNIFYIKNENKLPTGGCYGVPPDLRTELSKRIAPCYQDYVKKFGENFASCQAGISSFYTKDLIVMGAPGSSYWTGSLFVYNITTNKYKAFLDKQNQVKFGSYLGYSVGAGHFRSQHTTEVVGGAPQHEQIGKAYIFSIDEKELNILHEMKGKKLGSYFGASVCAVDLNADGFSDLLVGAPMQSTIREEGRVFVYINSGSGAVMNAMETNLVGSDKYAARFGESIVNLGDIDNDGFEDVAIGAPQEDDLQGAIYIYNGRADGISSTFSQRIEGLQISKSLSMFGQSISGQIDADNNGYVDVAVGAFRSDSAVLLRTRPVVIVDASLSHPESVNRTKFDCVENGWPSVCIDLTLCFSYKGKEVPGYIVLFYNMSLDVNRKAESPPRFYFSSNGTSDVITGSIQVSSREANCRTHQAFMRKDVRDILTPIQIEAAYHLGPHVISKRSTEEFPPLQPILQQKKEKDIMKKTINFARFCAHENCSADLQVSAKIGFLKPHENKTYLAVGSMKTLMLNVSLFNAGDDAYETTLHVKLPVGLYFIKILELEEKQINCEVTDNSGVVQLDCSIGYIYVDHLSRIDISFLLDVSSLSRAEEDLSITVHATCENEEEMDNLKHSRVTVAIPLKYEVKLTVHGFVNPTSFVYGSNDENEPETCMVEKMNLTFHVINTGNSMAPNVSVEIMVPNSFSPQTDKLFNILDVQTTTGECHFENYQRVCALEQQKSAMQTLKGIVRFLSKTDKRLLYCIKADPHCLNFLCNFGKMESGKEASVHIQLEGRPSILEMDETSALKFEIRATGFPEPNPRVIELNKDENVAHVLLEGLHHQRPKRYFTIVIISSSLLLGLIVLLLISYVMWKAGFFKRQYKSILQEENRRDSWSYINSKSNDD
Chain of integrin α4β1 (P05556 21-798): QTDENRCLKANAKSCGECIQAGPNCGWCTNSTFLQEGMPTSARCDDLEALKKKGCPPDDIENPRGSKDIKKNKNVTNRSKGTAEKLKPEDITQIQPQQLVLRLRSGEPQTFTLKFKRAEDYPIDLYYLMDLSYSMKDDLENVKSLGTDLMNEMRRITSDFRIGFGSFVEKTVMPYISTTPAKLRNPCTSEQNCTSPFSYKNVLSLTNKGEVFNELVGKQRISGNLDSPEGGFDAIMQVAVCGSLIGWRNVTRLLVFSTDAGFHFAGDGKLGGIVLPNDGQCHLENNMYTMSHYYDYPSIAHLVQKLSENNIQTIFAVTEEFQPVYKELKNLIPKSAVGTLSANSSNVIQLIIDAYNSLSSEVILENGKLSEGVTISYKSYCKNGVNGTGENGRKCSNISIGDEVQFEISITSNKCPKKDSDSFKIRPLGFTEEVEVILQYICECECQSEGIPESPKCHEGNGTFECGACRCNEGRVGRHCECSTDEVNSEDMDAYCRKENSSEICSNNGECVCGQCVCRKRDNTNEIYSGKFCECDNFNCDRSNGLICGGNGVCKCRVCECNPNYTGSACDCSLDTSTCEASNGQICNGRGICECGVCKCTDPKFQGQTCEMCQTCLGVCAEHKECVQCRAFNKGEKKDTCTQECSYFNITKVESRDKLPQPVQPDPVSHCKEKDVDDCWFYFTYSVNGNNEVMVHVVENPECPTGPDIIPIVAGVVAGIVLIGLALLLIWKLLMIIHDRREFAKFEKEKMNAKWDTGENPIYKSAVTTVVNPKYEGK

With LLP2A-Alendronate (1) [LLP2A-Ale (1)], the “location of transplanted MSCs (anti-GFP staining)” value in assay [1] (lumbar vertebral bodies, three days) is “observed within bone marrow and adjacent to the trabecular bone surfaces”. In addition, the osteocalcin levels entry in assay [1] (three days) and in assay [1] (three weeks) was “significantly increased” throughout.
Regarding `NCCCC(O)(P(=O)(O)O)P(=O)(O)O` [Ale, Alendronate, reference compound], the maximum stress entry in assay [2] was “not significantly altered”. Besides, in assay [2] (mid-femur), the cortical bone thickness result is “not significantly altered”.
A word on the IC50: it is the point on the concentration scale where inhibition reaches its midpoint. Consider “LLP2A: bisaryl urea peptidomimetic, highly potent and selective ligand for the activated form of α4β1 integrin [reference compound]”, for which the IC50 in assay [3] was 2 pM. For the same molecule, the “cell binding to ligand-coded rainbow beads (affinity)” value in assay [4] was “high affinity”. In addition, the “bone formation rate at endocortical and periosteal surfaces of the mid-femurs” value in assay [5] (four weeks after injections) was “significantly increased”. For the same molecule, the “proliferating cell populations (BrdU)” value in assay [5] (two days after i.v. injection, lumbar vertebral sections) is “increased the number of proliferating cell populations within the marrow cavity”. Besides, the “cancellous bone volume, BV/TV” value in assay [6] was found to be 10.5±0.5%. Further, in assay [2], the maximum stress result is listed as “not significantly altered”. Moreover, the cortical bone thickness result in assay [2] (mid-femur) was “not significantly altered”.

B1: PTH: PTH, comparator treatment given for four weeks in OVX mice (peptide, UniProt P01270 32-115, looked up)
Parathyroid hormone: SVSEIQLMHNLGKHLNSMERVEWLRKKLQDVHNFVALGAPLAPRDAGSQRPRKKEDNVLVESHEKSLGEADKADVNVLTKAKSQ
modifications: Parathyroid hormone
Turning to B1, the maximum stress result in assay [2] is on record as “not significantly altered”. The endocortical bone formation entry in assay [2] (mid-femur, vs OVX) was “increases”. The cortical bone thickness result in assay [2] (mid-femur) is listed as “not significantly altered”.
